Here are results for 18 compounds from US20260209208A1, “PHENYL-PYRAZOLE CARBOXAMIDE COMPOUNDS” (Acrivon Therapeutics, Inc., priority 2022, published 2026).

One assay addresses T1, Myt1 Kinase (Homo sapiens, UniProt Q99640).
T1 construct: endogenous in cells; host or cells: DAOY medulloblastoma cells (ATCC)
T1 sequence (Q99640 1-499): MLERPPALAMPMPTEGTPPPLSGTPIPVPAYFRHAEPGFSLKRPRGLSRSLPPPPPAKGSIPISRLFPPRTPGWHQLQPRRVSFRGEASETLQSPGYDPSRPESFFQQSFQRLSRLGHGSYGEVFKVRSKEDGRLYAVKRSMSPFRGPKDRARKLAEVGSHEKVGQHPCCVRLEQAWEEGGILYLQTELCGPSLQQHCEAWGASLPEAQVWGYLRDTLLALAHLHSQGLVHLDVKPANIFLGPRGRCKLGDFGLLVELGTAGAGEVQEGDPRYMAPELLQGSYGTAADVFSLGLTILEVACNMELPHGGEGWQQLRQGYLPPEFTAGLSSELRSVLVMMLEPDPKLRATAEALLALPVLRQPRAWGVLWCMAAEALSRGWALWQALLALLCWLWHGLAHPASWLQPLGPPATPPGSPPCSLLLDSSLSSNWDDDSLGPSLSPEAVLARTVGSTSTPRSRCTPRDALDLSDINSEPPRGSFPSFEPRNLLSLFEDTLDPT
The assay is described as follows: AlphaLISA SureFire Ultra Human Phospho-CDK1 (Thr14) target engagement assay in DAOY cells. Format: cell-based. Conditions: 4 h incubation, Cdk1 phosphorylated on threonine 14, read-out: TE Myt1 Kinase (AlphaLISA). On the procedure:
The following cellular assay was used to determine the extent to which the compounds disclosed herein inhibit phosphorylation of CDK1 at Thr 14.
(§1) DAOY medulloblastoma cell line (ATCC) was cultured in Minimum Essential Medium Eagle supplemented with 10% fetal calf serum (Sigma), 1% Penicillin-Streptomycin and 10 mM HEPES buffer (HyClone). Cell cultures were kept in a humidified incubator at 37° C. and 5% CO2. Cells were routinely tested for Mycoplasma contamination.
For target engagement assessment, quantification of Cdk1 phosphorylated on threonine 14 was detected using the AlphaLISA® SureFire® Ultra™ Human Phospho-CDK1 (Thr14) assay (Perkin Elmer). DAOY cells were seeded into tissue culture 96-well plates (VWR) to a density of 10,000 cells per well. Twenty-four hours post-seeding cells were incubated for 4 h with test compounds at concentrations ranging from 7 to 5000 nM. Cells were washed with PBS and lysed in 50 μl AlphaLISA® lysis buffer before freezing at −80° C. Ten μl of the lysate was transferred to 384 well plates and incubated with AlphaLISA® donor and acceptor beads according to the manufacturer's instructions. Dose response curves and EC50 values were calculated and visualized using GraphPad Prism version 9.
For orientation: Alpha assays give light when donor and acceptor beads are brought close together.

The test system of a further assay is DAOY cells. The assay can be described thus: Cell Titer Glo viability assay. Format: cell-based. The following applies: Homo sapiens, 144 hours, Cell Titer Glo 2.0. As to the method:
as §1
DAOY cells were seeded at a density of 250 cells per well in tissue culture 384 well plates (Corning Costar). After overnight incubation, cells were incubated with test compounds at concentrations ranging from 0.17 to 10,000 nM. Viability compared to untreated control was assessed at 144 hours using Cell Titer Glo® 2.0 Viability Assay (Promega).
In general terms: In ATP-based viability assays light output follows the ATP content of the culture.

The target in assay [1] is T2, recombinant human PMYT-1 (Myt1 kinase) (Homo sapiens, UniProt Q99640).
T2 construct: full length PMYT-1 was expressed by baculovirus in insect cells using a N-terminal GST tag; purchased Invitrogen A30984; host or cells: insect cells (baculovirus)
T2 sequence (Q99640 1-499): T1 sequence (Q99640 1-499)
The assay is described as follows: LanthaScreen Europium (Eu) Kinase Binding Assay for Myt1 kinase. Conditions: TR-FRET tracer 178 displacement, GST-tagged full length PMYT-1, 60 min, room temperature; mean IC50; read-out: LANTHA Kinase Binding for PMyt1. An excerpt: We used a LanthaScreen Europium (Eu) Kinase Binding Assay to determine the binding of provided compounds to Myt1 kinase. The assay utilizes an Alexa Fluor 647-labeled ATP competitive kinase tracer that binds to the ATP binding site of a GST-tagged Myt1 kinase, while a europium (Eu) labeled antibody binds to the GST tag. The proximity of fluorescently labeled kinase tracer and europium (Eu) donor fluorophore antibody leads to fluorescence resonance energy transfer (FRET) to the fluorescence label (acceptor) upon excitation of the Eu (donor). Displacement of tracer from the ATP-binding site by a test compound disturbs the proximity between both labels thus lowering the FRET.
This time resolved-FRET binding assay was performed in white 384-well low volume plates (Greiner, cat #784075), at room temperature in kinase buffer A (KBA; Invitrogen cat # PV3189), consisting of 50 mM HEPES-NaOH (pH 7.5), 0.01% Brij-35, 10 mM MgCl2, and 1 mM EGTA. 5 μl of compound (diluted in reaction buffer, to 1% DMSO) were added to various wells in the plate, followed by 5 μl each of recombinant human PMYT-1 (full length PMYT-1 was expressed by baculovirus in insect cells using a N-terminal GST tag (MW: 80.8 kDa) (Invitrogen cat #A30984) and LanthaScreen Eu-anti-GST antibody (Invitrogen, cat #PV5594). After this, 5 μl of kinase tracer 178 (Invitrogen, cat #PV5593) was added to the plate and the plate was incubated for 60 minutes at room temperature. The final assay conditions in each well were: 3 nM tracer 178, 2.5 nM PMYT-1 and 1 nM Eu-labeled antibody in total assay volume of 15 μl. An Envision 2104 (Perkin-Elmer) Plate Reader with the following time-resolve fluorescence setting was used for performing LanthaScreen kinase binding assay. • Excitation 320 nm (30 nm bandpass) • Kinase Tracer Emission 665 nm (10 nm bandpass) • LanthaScreen Eu-anti-Tag Antibody Emission 615 nm (10 nm bandpass) • Dichroic Mirror Instrument dependent • Delay Time 100 μs • Integration Time 200 μs
To calculate the emission ratio, the acceptor/tracer emission ([…]) was divided by the antibody/donor emission ([…]) and the average of duplicate measurement was used for calculations. Data plotting, analysis of binding, and curve fitting was done using Excel add-in XLfit version 5.5.0.5 (IDBS, Guildford, United Kingdom).

Turning to `Cc1ccc(O)c(C)c1-n1nc(-c2cc(-c3ccccc3)co2)c(C(N)=O)c1N` [Compound 88, 5-amino-1-(3-hydroxy-2,6-xylyl)-3-(4-phenyl-2-furyl)-4-pyrazolecarboxamide], the EC50 at Myt1 Kinase is at most 250 nM; in the assay on DAOY cells it was at most 500 nM. Further, the IC50 in assay [1] was at most 10 nM.
The corresponding values for `Cc1coc(-c2nn(-c3c(C)ccc(O)c3C)c(N)c2C(N)=O)c1` [Compound 90, 5-amino-1-(3-hydroxy-2,6-xylyl)-3-(4-methyl-2-furyl)-4-pyrazolecarboxamide] are at most 250 nM, at most 500 nM and at most 10 nM.
Turning to `Cc1ccc(O)c(C)c1-n1nc(-c2cc(-c3cccnc3)co2)c(C(N)=O)c1N` [Compound 94, 5-amino-1-(3-hydroxy-2,6-xylyl)-3-[4-(3-pyridyl)-2-furyl]-4-pyrazolecarboxamide], the EC50 on Myt1 Kinase is at most 250 nM; in the assay with DAOY cells, at most 500 nM. In addition, the IC50 in assay [1] was at most 10 nM.
The corresponding values for `Cc1ccc(O)c(C)c1-n1nc(-c2cc(-c3ccncc3)co2)c(C(N)=O)c1N` [Compound 95, 5-amino-1-(3-hydroxy-2,6-xylyl)-3-[4-(4-pyridyl)-2-furyl]-4-pyrazolecarboxamide] are at most 250 nM, at most 500 nM and at most 10 nM.
`C=Cc1coc(-c2nn(-c3c(C)ccc(O)c3C)c(N)c2C(N)=O)c1` [Compound 96, 5-amino-1-(3-hydroxy-2,6-xylyl)-3-(4-vinyl-2-furyl)-4-pyrazolecarboxamide]: the figures for the EC50 on Myt1 Kinase and in the assay with DAOY cells were at most 250 nM and at most 500 nM, respectively. Also, in assay [1], the IC50 was at most 10 nM.
The corresponding values for `C=C(C)c1coc(-c2nn(-c3c(C)ccc(O)c3C)c(N)c2C(N)=O)c1` [Compound 97, 5-amino-1-(3-hydroxy-2,6-xylyl)-3-(4-isopropenyl-2-furyl)-4-pyrazolecarboxamide] are at most 250 nM, at most 500 nM and at most 10 nM.
The corresponding values for `Cc1ccc(O)c(C)c1-n1nc(-c2cc(-c3ccccn3)co2)c(C(N)=O)c1N` [Compound 98, 5-amino-1-(3-hydroxy-2,6-xylyl)-3-[4-(2-pyridyl)-2-furyl]-4-pyrazolecarboxamide] are at most 250 nM, at most 500 nM and at most 10 nM.
The corresponding values for `Cc1ccc(O)c(C)c1-n1nc(-c2ccc(-c3ccncc3)o2)c(C(N)=O)c1N` [Compound 99, 5-amino-1-(3-hydroxy-2,6-xylyl)-3-[5-(4-pyridyl)-2-furyl]-4-pyrazolecarboxamide] are at most 250 nM, above 1000 nM and at most 10 nM.
Turning to `Cc1ccc(O)c(C)c1-n1nc(-c2ccc(C#N)o2)c(C(N)=O)c1N` [Compound 101, 5-amino-3-(5-cyano-2-furyl)-1-(3-hydroxy-2,6-xylyl)-4-pyrazolecarboxamide], the EC50 at Myt1 Kinase was at most 250 nM; in the assay with DAOY cells, above 1000 nM. Moreover, in assay [1], the IC50 was 10 to 100 nM.
The corresponding values for `Cc1ccc(O)c(C)c1-n1nc(-c2cc(C(C)C)co2)c(C(N)=O)c1N` [Compound 102, 5-amino-1-(3-hydroxy-2,6-xylyl)-3-(4-isopropyl-2-furyl)-4-pyrazolecarboxamide] are at most 250 nM, at most 500 nM and at most 10 nM.
The corresponding values for `CC(C)=Cc1coc(-c2nn(-c3c(C)ccc(O)c3C)c(N)c2C(N)=O)c1` [Compound 108, 5-amino-1-(3-hydroxy-2,6-xylyl)-3-[4-(2-methyl-1-propenyl)-2-furyl]-4-pyrazolecarboxamide] are at most 250 nM, 500 to 1000 nM and at most 10 nM.
The corresponding values for `Cc1ccc(O)c(C)c1-n1nc(-c2cc(C3CC3)co2)c(C(N)=O)c1N` [Compound 111, 5-amino-3-(4-cyclopropyl-2-furyl)-1-(3-hydroxy-2,6-xylyl)-4-pyrazolecarboxamide] are at most 250 nM, 500 to 1000 nM and 10 to 100 nM.
`C/C=C/c1coc(-c2nn(-c3c(C)ccc(O)c3C)c(N)c2C(N)=O)c1` [Compound 112, 3-{4-[(E)-1-propenyl]-2-furyl}-5-amino-1-(3-hydroxy-2,6-xylyl)-4-pyrazolecarboxamide]: the EC50 is at most 250 nM at Myt1 Kinase and 500 to 1000 nM with DAOY cells. Further, in assay [1], the IC50 was at most 10 nM.
The corresponding values for `Cc1ccc(O)c(C)c1-n1nc(-c2cc(C#CC(C)(C)O)co2)c(C(N)=O)c1N` [Compound 113, 5-amino-3-[4-(3-hydroxy-3-methyl-1-butynyl)-2-furyl]-1-(3-hydroxy-2,6-xylyl)-4-pyrazolecarboxamide] are 250 to 500 nM, above 1000 nM and 10 to 100 nM.
On to `CC#Cc1coc(-c2nn(-c3c(C)ccc(O)c3C)c(N)c2C(N)=O)c1` [Compound 114, 5-amino-1-(3-hydroxy-2,6-xylyl)-3-[4-(1-propynyl)-2-furyl]-4-pyrazolecarboxamide], for which the results for the EC50 on Myt1 Kinase and in the assay on DAOY cells were at most 250 nM and 500 to 1000 nM, respectively. Moreover, in assay [1], the IC50 was at most 10 nM.
The corresponding values for `COc1ccc2oc(-c3nn(-c4c(C)ccc(O)c4C)c(N)c3C(N)=O)cc2c1` [Compound 115, 5-amino-1-(3-hydroxy-2,6-dimethylphenyl)-3-(5-methoxybenzofuran-2-yl)-1H-pyrazole-4-carboxamide] are at most 250 nM, 500 to 1000 nM and at most 10 nM.
The corresponding values for `Cc1ccc(O)c(C)c1-n1nc(-c2cccs2)c(C(N)=O)c1N` [Compound 119] are at most 250 nM, 500 to 1000 nM and at most 10 nM.
The corresponding values for `Cc1ccc(O)c(C)c1-n1nc(-c2ncco2)c(C(N)=O)c1N` [Compound 123] are at most 250 nM, 500 to 1000 nM and at most 10 nM.
